# ChEMBL document CHEMBL5608186, “Design, synthesis and structure-activity relationships of novel non-ketolides: 9-Oxime clarithromycin featured with seven-to thirteen-atom-length diamine linkers at 3-OH” (Eur J Med Chem, 2024)
# Assays:
# Type in all cases: functional
# Staphylococcus aureus [1] = experiment: Selectivity ratio of MBC for methicillin-resistant Staphylococcus aureus PU 32 harboring i-ermA gene to MIC for methicillin-resistant Staphylococcus aureus PU 32 harboring i-ermA gene
# Haemophilus influenzae [2] = experiment: Antibacterial activity against Haemophilus influenzae ATCC 49247 incubated for 16 to 20 hrs by CLSI based broth microdilution method; conditions: time 16-20 hrs
# Streptococcus pyogenes [3] = experiment: Bactericidal activity against Streptococcus pyogenes 01-968 harboring i-ermB gene incubated for 16 to 20 hrs by CLSI based broth microdilution method; conditions: time 16-20 hrs
# Streptococcus pyogenes [4] = experiment: Selectivity ratio of MBC for Streptococcus pyogenes 01-968 harboring i-ermB gene to MIC for Streptococcus pyogenes 01-968 harboring i-ermB gene
# Streptococcus pneumoniae [5] = experiment: Antibacterial activity against Streptococcus pneumoniae 07P390 harboring c-erm gene incubated for 16 to 20 hrs by CLSI based broth microdilution method; conditions: time 16-20 hrs
# Streptococcus pneumoniae [6] = experiment: Selectivity ratio of MBC for Streptococcus pneumoniae ATCC 49619 to MIC for Streptococcus pneumoniae ATCC 49619
# Haemophilus influenzae [7] = experiment: Bactericidal activity against Haemophilus influenzae ATCC 49247 incubated for 16 to 20 hrs by CLSI based broth microdilution method; conditions: time 16-20 hrs
# Streptococcus pneumoniae [8] = experiment: Selectivity ratio of MBC for Streptococcus pneumoniae PU 09 harboring mef gene to MIC for Streptococcus pneumoniae PU 09 harboring mef gene
# Staphylococcus aureus [9] = experiment: Bactericidal activity against methicillin-resistant Staphylococcus aureus PU 20 harboring c-ermA gene incubated for 16 to 20 hrs by CLSI based broth microdilution method; conditions: time 16-20 hrs
# Streptococcus pneumoniae [10] = experiment: Antibacterial activity against Streptococcus pneumoniae PU 09 harboring mef gene incubated for 16 to 20 hrs by CLSI based broth microdilution method; conditions: time 16-20 hrs
# Streptococcus pyogenes [11] = experiment: Antibacterial activity against Streptococcus pyogenes 01-968 harboring i-ermB gene incubated for 16 to 20 hrs by CLSI based broth microdilution method; conditions: time 16-20 hrs
# Streptococcus pneumoniae [12] = experiment: Bactericidal activity against Streptococcus pneumoniae ATCC 49619 incubated for 16 to 20 hrs by CLSI based broth microdilution method; conditions: time 16-20 hrs
# Streptococcus pneumoniae [13] = experiment: Bactericidal activity against Streptococcus pneumoniae PU 09 harboring mef gene incubated for 16 to 20 hrs by CLSI based broth microdilution method; conditions: time 16-20 hrs
# Staphylococcus aureus [14] = experiment: Bactericidal activity against methicillin-resistant Staphylococcus aureus PU 32 harboring i-ermA gene incubated for 16 to 20 hrs by CLSI based broth microdilution method; conditions: time 16-20 hrs
# Staphylococcus aureus [15] = experiment: Antibacterial activity against methicillin-resistant Staphylococcus aureus PU 32 harboring i-ermA gene incubated for 16 to 20 hrs by CLSI based broth microdilution method; conditions: time 16-20 hrs
# Staphylococcus aureus [16] = experiment: Antibacterial activity against methicillin-resistant Staphylococcus aureus PU 20 harboring c-ermA gene incubated for 16 to 20 hrs by CLSI based broth microdilution method; conditions: time 16-20 hrs
# Haemophilus influenzae [17] = experiment: Selectivity ratio of MBC for Haemophilus influenzae ATCC 49247 to MIC for Haemophilus influenzae ATCC 49247
# Streptococcus pneumoniae [18] = experiment: Antibacterial activity against Streptococcus pneumoniae ATCC 49619 incubated for 16 to 20 hrs by CLSI based broth microdilution method; conditions: time 16-20 hrs
# Streptococcus pneumoniae [19] = experiment: Selectivity ratio of MBC for Streptococcus pneumoniae 07P390 harboring c-erm gene to MIC for Streptococcus pneumoniae 07P390 harboring c-erm gene
# Streptococcus pneumoniae [20] = experiment: Bactericidal activity against Streptococcus pneumoniae 07P390 harboring c-erm gene incubated for 16 to 20 hrs by CLSI based broth microdilution method; conditions: time 16-20 hrs
SMILES,Selectivity ratio (Staphylococcus aureus [1]),MIC (Haemophilus influenzae [2]) [µg/mL],MBC (Streptococcus pyogenes [3]) [µg/mL],Selectivity ratio (Streptococcus pyogenes [4]),MIC (Streptococcus pneumoniae [5]) [µg/mL],Selectivity ratio (Streptococcus pneumoniae [6]),MBC (Haemophilus influenzae [7]) [µg/mL],Selectivity ratio (Streptococcus pneumoniae [8]),MBC (Staphylococcus aureus [9]) [µg/mL],MIC (Streptococcus pneumoniae [10]) [µg/mL],MIC (Streptococcus pyogenes [11]) [µg/mL],MBC (Streptococcus pneumoniae [12]) [µg/mL],MBC (Streptococcus pneumoniae [13]) [µg/mL],MBC (Staphylococcus aureus [14]) [µg/mL],MIC (Staphylococcus aureus [15]) [µg/mL],MIC (Staphylococcus aureus [16]) [µg/mL],Selectivity ratio (Haemophilus influenzae [17]),MIC (Streptococcus pneumoniae [18]) [µg/mL],Selectivity ratio (Streptococcus pneumoniae [19]),MBC (Streptococcus pneumoniae [20]) [µg/mL]
CC[C@H]1OC(=O)[C@H](C)[C@@H](OC(=O)CCNCCCCNc2cc3c(cc2F)c(=O)c(C(=O)O)cn3C2CC2)[C@H](C)[C@@H](O[C@@H]2O[C@H](C)C[C@H](N(C)C)[C@H]2O)[C@](C)(OC)C[C@@H](C)/C(=N\OCC#Cc2cncc(NC(C)=O)c2)[C@H](C)[C@H]2OC(=O)O[C@@]21C,2,4,> 4,>8,0.06,1,4,1,> 256,0.03,0.5,0.016,0.03,64,32,> 256,1,0.016,8,0.5
CC[C@H]1OC(=O)[C@H](C)[C@@H](OC(=O)CCNCCCCNc2cc3c(cc2F)c(=O)c(C(=O)O)cn3C2CC2)[C@H](C)[C@@H](O[C@@H]2O[C@H](C)C[C@H](N(C)C)[C@H]2O)[C@](C)(OC)C[C@@H](C)/C(=N\OC/C=C/c2cncc(C(=O)NC)c2)[C@H](C)[C@H]2OC(=O)O[C@@]21C,>8,2,> 1,>8,2,>=1,4,1,> 256,0.06,0.12,0.008,0.06,> 256,32,> 256,2,≤ 0.008,1,2
CC[C@H]1OC(=O)[C@H](C)[C@@H](OC(=O)CCNCCCCCCCNc2cc3c(cc2F)c(=O)c(C(=O)O)cn3C2CC2)[C@H](C)[C@@H](O[C@@H]2O[C@H](C)C[C@H](N(C)C)[C@H]2O)[C@](C)(OC)C[C@@H](C)/C(=N\OC)[C@H](C)[C@H]2OC(=O)O[C@@]21C,8,256,0.125,8,8,2,256,1,> 256,2,0.016,0.25,2,16,2,128,1,0.125,2,16
CC[C@H]1OC(=O)[C@H](C)[C@@H](OC(=O)CCNCCCCNc2cc3c(cc2F)c(=O)c(C(=O)O)cn3C2CC2)[C@H](C)[C@@H](O[C@@H]2O[C@H](C)C[C@H](N(C)C)[C@H]2O)[C@](C)(OC)C[C@@H](C)/C(=N\OC/C=C/c2ccc3c(c2)c(=O)c(C(N)=O)cn3CC)[C@H](C)[C@H]2OC(=O)O[C@@]21C,>4,8,> 2,>8,0.25,2,8,1,> 256,0.06,0.25,0.12,0.06,> 256,64,> 256,1,0.06,8,2
CC[C@H]1OC(=O)[C@H](C)[C@@H](OC(=O)CCN2CCN(c3cc4c(cc3F)c(=O)c(C(=O)O)cn4CC)CC2)[C@H](C)[C@@H](O[C@@H]2O[C@H](C)C[C@H](N(C)C)[C@H]2O)[C@](C)(OC)C[C@@H](C)/C(=N\OCC#Cc2cncc(C(=O)NC)c2)[C@H](C)[C@H]2OC(=O)O[C@@]21C,>4,16,> 128,>8,8,1,16,8,> 256,0.12,16,0.12,1,> 256,64,> 256,1,0.12,>8,> 64
